Test results reported in ChEMBL document CHEMBL3091331, “Aminothiazole-featured pirinixic acid derivatives as dual 5-lipoxygenase and microsomal prostaglandin E2 synthase-1 inhibitors with improved potency and efficiency in vivo” (J Med Chem, 2013).
pIC50: −log10 of the molar value. Calls of active or inactive are those of the source. The calls are words filed in the database; no cut-off is given here.

What was measured:
Prostaglandin E synthase [1] = target: T1, Prostaglandin E synthase (Homo sapiens, UniProt O14684); test: Inhibition of mPGES-1 from human A549 cell microsomal membranes using PGH2 as substrate incubated 15 mins prior to substrate addition measured after 1 min by RP-HPLC analysis
T1 sequence (O14684 whole entry): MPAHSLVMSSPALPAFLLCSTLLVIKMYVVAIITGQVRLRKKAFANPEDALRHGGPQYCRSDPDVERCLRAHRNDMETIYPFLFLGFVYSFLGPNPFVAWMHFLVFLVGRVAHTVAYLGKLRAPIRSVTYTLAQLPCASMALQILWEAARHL

[2] = target: T2, Polyunsaturated fatty acid 5-lipoxygenase (Homo sapiens, UniProt P09917); test: Inhibition of human recombinant 5-lipoxygenase expressed in Escherichia coli BL21 using arachidonic acid as substrate incubated 5 to 10 mins prior to substrate addition measured after 10 mins by HPLC analysis
T2 sequence (P09917 whole entry): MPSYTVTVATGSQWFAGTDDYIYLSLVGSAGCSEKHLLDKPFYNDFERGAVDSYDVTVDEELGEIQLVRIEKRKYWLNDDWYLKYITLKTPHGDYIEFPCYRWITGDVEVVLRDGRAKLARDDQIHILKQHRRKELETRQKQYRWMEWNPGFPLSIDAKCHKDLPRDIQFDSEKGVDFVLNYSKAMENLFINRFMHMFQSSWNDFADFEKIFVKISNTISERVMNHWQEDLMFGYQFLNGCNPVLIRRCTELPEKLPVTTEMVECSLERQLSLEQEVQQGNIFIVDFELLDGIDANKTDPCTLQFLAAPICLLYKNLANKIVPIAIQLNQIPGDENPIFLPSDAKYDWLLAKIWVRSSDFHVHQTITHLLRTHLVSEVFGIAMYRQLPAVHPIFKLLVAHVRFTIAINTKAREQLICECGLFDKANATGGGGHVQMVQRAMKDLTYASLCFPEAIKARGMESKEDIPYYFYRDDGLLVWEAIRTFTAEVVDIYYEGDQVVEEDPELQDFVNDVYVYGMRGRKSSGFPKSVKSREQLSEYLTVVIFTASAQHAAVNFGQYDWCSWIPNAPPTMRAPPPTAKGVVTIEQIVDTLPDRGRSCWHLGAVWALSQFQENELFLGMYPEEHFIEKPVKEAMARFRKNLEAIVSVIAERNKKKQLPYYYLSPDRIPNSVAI

[3] = target: T2, Polyunsaturated fatty acid 5-lipoxygenase; test: Inhibition of 5-lipoxygenase in A23187-stimulated human polymorphonuclear leukocytes using arachidonic acid as substrate incubated 15 mins prior to substrate addition measured after 10 mins by HPLC analysis
[4] = Metabolic stability in Sprague-Dawley rat liver microsomes assessed as compound remaining at 10 uM after 60 mins by HPLC analysis; assay type: ADME; settings: read-out: Stability
[5] = target: T3, Polyunsaturated fatty acid 5-lipoxygenase (Homo sapiens) (UniProt P09917); test: Inhibition of human recombinant 5-lipoxygenase expressed in Escherichia coli BL21 using arachidonic acid as substrate at 1 uM incubated 5 to 10 mins prior to substrate addition measured after 10 mins by HPLC analysis
T3 sequence (whole entry): T2 sequence (P09917 whole entry)

Mus musculus [6] = test: Antiinflammatory activity in CD-1 mouse peritonitis model assessed as reduction in neutrophil infiltration at 1 mg/kg, ip administered 30 mins prior to zymosan-challenge measured after 4 hrs by spectrophotometry relative to vehicle-treated control; assay type: functional; settings: CD-1, ip, route intraperitoneal
Mus musculus [7] = test: Reduction of PGE2 biosynthesis in CD-1 mouse peritonitis model at 1 mg/kg, ip administered 30 mins prior to zymosan-challenge measured after 4 hrs by RIA (reference value: 1.46 +/- 0.08 ng/ml); assay type: functional, organism-based; design: dose 1 mg/kg
Mus musculus [8] = test: Antiinflammatory activity in CD-1 mouse peritonitis model assessed as reduction in myeloperoxidase activity at 1 mg/kg, ip administered 30 mins prior to zymosan-challenge measured after 4 hrs by spectrophotometry relative to vehicle-treated control; assay type: functional; settings: CD-1, ip, route intraperitoneal
Mus musculus [9] = test: Reduction of LTC4 formation in CD-1 mouse peritonitis model at 1 mg/kg, ip administered 30 mins prior to zymosan-challenge measured after 30 mins by EIA relative to vehicle-treated control; assay type: functional; settings: CD-1, ip, route intraperitoneal
Mus musculus [10] = test: Antiinflammatory activity in CD-1 mouse peritonitis model assessed as reduction in vascular permeability at 1 mg/kg, ip administered 30 mins prior to zymosan-challenge measured after 4 hrs relative to vehicle-treated control; assay type: functional; settings: CD-1, ip, route intraperitoneal
[11] = test system: Radical scavenging activity; test: Antioxidant activity assessed as DPPH radical scavenging activity at 25 to 100 uM after 30 mins; assay type: functional
[12] = target: T4, Prostaglandin E synthase (Homo sapiens) (UniProt O14684); test: Inhibition of mPGES-1 (unknown origin) assessed as remaining activity at 10 uM; values are per cent of control
T4 sequence (whole entry): T1 sequence (O14684 whole entry)

[13] = target: T2, Polyunsaturated fatty acid 5-lipoxygenase; test: Inhibition of 5-lipoxygenase in human polymorphonuclear leukocytes; assay type: cell-based
Prostaglandin E synthase [14] = target: T1, Prostaglandin E synthase; test: Inhibition of mPGES-1 (unknown origin)
[15] = target: T3, Polyunsaturated fatty acid 5-lipoxygenase (Homo sapiens); test: Ratio of IC50 for human recombinant 5-lipoxygenase expressed in Escherichia coli BL21 to IC50 for 5-lipoxygenase in human PMNL cells
Homo sapiens = species: Homo sapiens; test: Translocation of 5-lipoxygenase from cytosol into nuclear membrane in A23187-stimulated human polymorphonuclear leukocytes assessed as enzyme product formation at 10 uM incubated for 15 mins prior to A23187-challenge measured after 5 mins by Western blotting analysis; assay type: functional

Structure (SMILES)	pIC50 (Prostaglandin E synthase [1])	pIC50 [2]	pIC50 [3]	further results
CCCCCCC(Sc1nc(Cl)cc(Nc2nc(-c3ccc(F)c(F)c3)cs2)n1)C(=O)O (stereo not given)	5.80	5.64	5.82	–
CCCCC(Sc1nc(Cl)cc(Nc2nc(-c3ccc(Cl)cc3)cs2)n1)C(=O)O (stereo not given)	5.92	5.42	6.05	–
CCOc1ccc2ccc(=O)oc2c1 [ETHOXYCOUMARIN]	–	–	–	remaining at 1 h, 10 µM [4]: 31%
CCCCCCC(Sc1nc(Cl)cc(Nc2nc(-c3ccc(Cl)cc3)cs2)n1)C(=O)O (stereo not given)	6.15	6.10	6.05	–
CCCCCCC(Sc1nc(Cl)cc(Nc2nc(-c3ccccc3)c(CC)s2)n1)C(=O)O (stereo not given)	5.77	5.74	6.15	–
CC(C)c1ccc2c(c1)c(SC(C)(C)C)c(CC(C)(C)C(=O)O)n2Cc1ccc(Cl)cc1	–	–	–	inhibition [5]: inactive; inhibition in vivo at 1 mg/kg (Mus musculus [6]): 34%; inhibition (Mus musculus [7]): inactive; inhibition in vivo at 1 mg/kg (Mus musculus [8]): 18%; inhibition in vivo at 1 mg/kg (Mus musculus [9]): 94%; inhibition in vivo at 1 mg/kg (Mus musculus [10]): 76%
CCCCCCC(Sc1nc(Cl)cc(Nc2nc(C34CC5CC(CC(C5)C3)C4)cs2)n1)C(=O)O (stereo not given)	6.05	5.30	5.48	–
O=C1O[C@H]([C@@H](O)CO)C(O)=C1O	–	–	–	Activity [11]: Active
CCCCCCC(Sc1nc(Cl)cc(Nc2cccc(C)c2C)n1)C(=O)O (stereo not given)	–	–	5.41	–
CCCCCCC(Sc1nc(Cl)cc(Nc2nc(-c3cccc4ccccc34)cs2)n1)C(=O)O (stereo not given)	5.77	6.15	6.40	–
O=C(O)C(Sc1nc(Cl)cc(Nc2nc(-c3ccc(Cl)cc3)cs2)n1)c1cccc2ccccc12 (stereo not given)	6.30	6.15	6.40	–
CCCCCC[C@@H](Sc1nc(Cl)cc(Nc2nc(-c3ccc4ccccc4c3)cs2)n1)C(=O)O	6.22	6.40	6.40	–
CCCCCCC(Sc1nc(Cl)cc(Nc2nc(-c3ccc([N+](=O)[O-])cc3)cs2)n1)C(=O)O (stereo not given)	5.30	5.74	5.85	–
CCCCCCC(Sc1nc(Cl)cc(Nc2nc(-c3ccc(OC)cc3)cs2)n1)C(=O)O (stereo not given)	5.89	5.74	6.10	–
CCCCCCC(Sc1nc(Cl)cc(Nc2nc(-c3ccccc3)c(C)s2)n1)C(=O)O (stereo not given)	6.15	5.72	6.22	remaining at 1 h, 10 µM [4]: 74%
CCCCCCC(Sc1nc(Cl)cc(Nc2ccc3[nH]c(C(F)(F)F)nc3c2)n1)C(=O)O (stereo not given)	–	–	–	residual activity [12]: 43.4%
O=C(O)CSc1nc(Cl)cc(Nc2nc(-c3ccc(Cl)cc3)cs2)n1	5.64	< 5.00	< 5.00	–
CCCCCCC(Sc1nc(Cl)cc(Nc2nc(-c3ccc4c(c3)CCCC4)cs2)n1)C(=O)O (stereo not given)	6.40	5.64	6.40	–

Structure (SMILES)	pIC50 (Prostaglandin E synthase [1])	pIC50 [2]	pIC50 [3]	further results
CCCCCCC(Sc1nc(Cl)cc(Nc2nc(-c3ccc(Cl)cc3Cl)cs2)n1)C(=O)O (stereo not given)	6.40	5.96	6.10	–
CCCCCCC(Sc1nc(Cl)cc(Nc2cccc(-c3ccccc3)c2)n1)C(=O)O (stereo not given)	–	–	–	pIC50 [13]: 6.22; pIC50 (Prostaglandin E synthase [14]): 5.40
CCCCCCC(Sc1nc(Cl)cc(Nc2nc(-c3ccc(-c4ccccc4)cc3)cs2)n1)C(=O)O (stereo not given)	6.30	6.22	6.52	–
CCCCCC[C@H](Sc1nc(Cl)cc(Nc2nc(-c3ccc4ccccc4c3)cs2)n1)C(=O)O	6.22	6.52	6.05	–
CCCCCCC(Sc1nc(Cl)cc(Nc2nc(-c3ccc(F)cc3F)cs2)n1)C(=O)O (stereo not given)	5.74	5.60	5.82	–
CCCCCCC(Sc1nc(Cl)cc(Nc2nc(-c3ccc(Br)cc3)cs2)n1)C(=O)O (stereo not given)	6.10	6.15	6.52	–
CCCCCCC(Sc1nc(Cl)cc(Nc2nc(-c3ccc(Br)cc3)c(C)s2)n1)C(=O)O (stereo not given)	5.89	5.80	6.70	Ratio IC50 [15]: 8
CCC(Sc1nc(Cl)cc(Nc2nc(-c3ccc(Cl)cc3)cs2)n1)C(=O)O (stereo not given)	5.85	5.18	5.44	–
CC(C)=CCC[C@]1(C)[C@@H](CC=C(C)C)C[C@]2(CC=C(C)C)C(=O)C(CC=C(C)C)=C(O)[C@@]1(C(=O)C(C)C)C2=O	–	–	–	Activity (Homo sapiens): Active
CCCCCCC(Sc1nc(Cl)cc(Nc2nc(-c3ccccc3)cs2)n1)C(=O)O (stereo not given)	6.10	5.70	6.22	–
N[C@@H](CS)C(=O)O	–	–	–	Activity [11]: Active
CCCCCCC(Sc1nc(Cl)cc(Nc2nc(-c3ccc(Cl)c(Cl)c3)cs2)n1)C(=O)O (stereo not given)	6.52	6.15	6.40	–
CCCCCCC(Sc1nc(Cl)cc(Nc2ccc(-c3ccccc3)cc2)n1)C(=O)O (stereo not given)	–	–	–	pIC50 [13]: 6.14
CCCCCCC(Sc1nc(Cl)cc(Nc2nc(-c3ccc(C)cc3)cs2)n1)C(=O)O (stereo not given)	6.15	5.52	6.70	Ratio IC50 [15]: 8
CCCCCCC(Sc1nc(Cl)cc(Nc2nc3c(s2)CCc2cc(OC)ccc2-3)n1)C(=O)O (stereo not given)	5.72	5.72	6.70	Ratio IC50 [15]: 8
CCC(Sc1nc(Cl)cc(Nc2nc(-c3ccc4ccccc4c3)cs2)n1)C(=O)O (stereo not given)	5.85	5.70	5.54	–
CCCCCCC(Sc1nc(Cl)cc(Nc2nc(-c3ccccc3)c(-c3ccccc3)s2)n1)C(=O)O (stereo not given)	6.22	6.15	6.22	–
CCCCCCC(Sc1nc(Cl)cc(Nc2nc(-c3ccc(C(F)(F)F)cc3)cs2)n1)C(=O)O (stereo not given)	6.40	5.92	6.22	–
